Experiment: xn = mol fraction of the nth substance listed
Details: 101 kPa

C[NH+](C)C.O=S(=O)([N-]S(=O)(=O)C(F)(F)F)C(F)(F)F + N#CCCCC#N
x1 = 0.2167
Details | viscosity [mPa·s]
278 K | 23
283 K | 18.87
293 K | 13.35
303 K | 9.89
308 K | 8.64
313 K | 7.609
323 K | 6.028
328 K | 5.417
333 K | 4.899
338 K | 4.457
343 K | 4.07
348 K | 3.741

C[S+](C)C.O=S(=O)([N-]S(=O)(=O)C(F)(F)F)C(F)(F)F + N#CCCCC#N
x1 = 0.2085
Details | viscosity [mPa·s]
283 K | 18.02
288 K | 15.07
293 K | 12.76
298 K | 10.92
308 K | 8.25
313 K | 7.26
323 K | 5.744
343 K | 3.871
353 K | 3.283

— a compilation of properties of binary mixtures (doi:10.1021/acs.jced.0c00740)
